Measured values: ChEMBL document CHEMBL5338751, “Discovery of the First-in-Class Intestinal Restricted FXR and FABP1 Dual Modulator ZLY28 for the Treatment of Nonalcoholic Fatty Liver Disease” (J Med Chem, 2023)
The source made the active and inactive calls. The calls are words filed in the database; no cut-off is given here.

What was measured:
Mus musculus [1] = test: Anti-NASH activity in western diet and CCl4-induced nonalcoholic steatohepatitis C57BL/6 mouse assessed as reduction in IL6 level at 20 mg/kg, po administered for 12 weeks starting from week 8 and change in dose for every 5 days by ELISA; assay type: functional, organism-based; conditions: time 4.0 weeks
Vitamin D3 receptor = Vitamin D3 receptor (Homo sapiens, UniProt P11473); test: Activation of VP16-fused VDR-LBD (unknown origin) incubated for 18 hrs in presence of substrate by luciferase assay
Vitamin D3 receptor, sequence (P11473 whole entry, the tested form may be a part): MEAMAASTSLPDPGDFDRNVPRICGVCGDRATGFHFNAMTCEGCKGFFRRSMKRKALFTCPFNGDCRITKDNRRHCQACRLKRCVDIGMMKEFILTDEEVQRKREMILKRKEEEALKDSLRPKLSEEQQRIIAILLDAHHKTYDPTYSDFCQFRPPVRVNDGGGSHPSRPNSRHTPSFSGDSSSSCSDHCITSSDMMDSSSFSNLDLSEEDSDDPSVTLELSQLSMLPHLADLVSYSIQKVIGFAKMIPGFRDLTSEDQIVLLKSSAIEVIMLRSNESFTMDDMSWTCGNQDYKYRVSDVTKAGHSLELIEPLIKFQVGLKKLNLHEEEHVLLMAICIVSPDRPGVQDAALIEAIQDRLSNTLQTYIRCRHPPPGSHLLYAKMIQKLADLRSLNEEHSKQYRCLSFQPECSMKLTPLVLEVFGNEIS

[2] = Subacute toxicity in ICR mouse assessed as changes in serum DBIL level at 500 mg/kg/day, po administered for 14 days; assay type: organism-based; conditions: in vivo, 336 h, time 14 day
Mus musculus [3] = test: In vivo inhibition of FABP1 in western diet and CCl4-induced nonalcoholic steatohepatitis C57BL/6 mouse assessed as reduction in NEFA uptake in fecal at 20 mg/kg, po administered for 12 weeks starting from week 8 and change in dose for every 5 days; assay type: functional, organism-based; conditions: time 4.0 weeks
[4] = Metabolic stability in rhesus monkey liver microsomes assessed as parent compound remaining incubated for 1 hr by LC-MS analysis; assay type: ADME, Macaca mulatta, Microsome; conditions: read-out: Stability
Mus musculus [5] = test: In vivo inhibition of FABP1 in western diet and CCl4-induced nonalcoholic steatohepatitis C57BL/6 mouse assessed as increase in excretion of NEFA in fecal at 20 mg/kg, po administered for 12 weeks starting from week 8 and change in dose for every 5 days; assay type: functional, organism-based; conditions: time 4.0 weeks
[6] = biological target: T1, Bile acid receptor (Mus musculus) (UniProt Q60641); test: Activation of FXR in C57BL/6 mouse ileum assessed as upregulation of SHP gene expression at 20 mg/kg, po administered for 5 days and measured after 1 hr post final dose by RT-PCR analysis; assay type: organism-based; conditions: filed as activator, time 5.0 day
T1 sequence (whole entry): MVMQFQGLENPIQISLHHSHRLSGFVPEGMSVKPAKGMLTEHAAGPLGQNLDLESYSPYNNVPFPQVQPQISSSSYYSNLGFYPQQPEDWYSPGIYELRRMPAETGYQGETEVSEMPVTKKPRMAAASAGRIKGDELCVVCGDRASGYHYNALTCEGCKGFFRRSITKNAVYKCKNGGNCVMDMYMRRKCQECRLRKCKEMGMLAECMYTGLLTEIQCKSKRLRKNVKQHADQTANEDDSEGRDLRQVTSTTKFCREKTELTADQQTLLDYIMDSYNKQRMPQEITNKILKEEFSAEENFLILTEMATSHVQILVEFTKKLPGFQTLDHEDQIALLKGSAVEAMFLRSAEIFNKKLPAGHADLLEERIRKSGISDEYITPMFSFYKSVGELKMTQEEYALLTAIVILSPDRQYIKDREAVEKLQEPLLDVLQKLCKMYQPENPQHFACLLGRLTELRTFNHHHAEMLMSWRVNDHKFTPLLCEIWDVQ

[7] = Subacute toxicity in ICR mouse assessed as changes in serum ALT level at 500 mg/kg/day, po administered for 14 days; assay type: organism-based; conditions: in vivo, 336 h, time 14 day
[8] = biological target: T2, Peroxisome proliferator-activated receptor gamma (Homo sapiens, UniProt P37231); test: Inhibition of PPARgamma (unknown origin) transfected in HEK293 cells incubated for 18 hrs in presence of rosiglitazone by dual luciferase reporter assay; assay type: cell-based
T2 sequence (P37231 whole entry): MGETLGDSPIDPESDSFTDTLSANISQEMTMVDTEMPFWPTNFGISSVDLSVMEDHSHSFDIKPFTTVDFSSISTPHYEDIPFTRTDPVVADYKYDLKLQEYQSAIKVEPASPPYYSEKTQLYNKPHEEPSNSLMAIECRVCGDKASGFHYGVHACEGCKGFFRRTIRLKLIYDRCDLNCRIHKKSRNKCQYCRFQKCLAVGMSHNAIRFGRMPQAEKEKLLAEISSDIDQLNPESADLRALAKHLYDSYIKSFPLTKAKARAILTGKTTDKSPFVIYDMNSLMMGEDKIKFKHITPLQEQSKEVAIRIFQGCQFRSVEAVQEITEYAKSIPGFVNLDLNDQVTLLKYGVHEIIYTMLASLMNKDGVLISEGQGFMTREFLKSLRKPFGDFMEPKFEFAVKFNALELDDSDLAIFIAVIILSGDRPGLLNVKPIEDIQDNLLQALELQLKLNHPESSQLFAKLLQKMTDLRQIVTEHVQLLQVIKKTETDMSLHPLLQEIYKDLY

Mus musculus [9] = test: Anti-NASH activity in western diet and CCl4-induced nonalcoholic steatohepatitis C57BL/6 mouse assessed as reduction in liver weight ratio at 20 mg/kg, po administered for 12 weeks starting from week 8 and change in dose for every 5 days; assay type: functional, organism-based; conditions: time 4.0 weeks
Progesterone receptor = Progesterone receptor (Homo sapiens, UniProt P06401); test: Activation of Gal-DBD and NHRLBD fused PR (unknown origin) transfected in African green monkey CV-1 cells by luciferase reporter assay; assay type: cell-based
Progesterone receptor, sequence (P06401 whole entry, the tested form may be a part): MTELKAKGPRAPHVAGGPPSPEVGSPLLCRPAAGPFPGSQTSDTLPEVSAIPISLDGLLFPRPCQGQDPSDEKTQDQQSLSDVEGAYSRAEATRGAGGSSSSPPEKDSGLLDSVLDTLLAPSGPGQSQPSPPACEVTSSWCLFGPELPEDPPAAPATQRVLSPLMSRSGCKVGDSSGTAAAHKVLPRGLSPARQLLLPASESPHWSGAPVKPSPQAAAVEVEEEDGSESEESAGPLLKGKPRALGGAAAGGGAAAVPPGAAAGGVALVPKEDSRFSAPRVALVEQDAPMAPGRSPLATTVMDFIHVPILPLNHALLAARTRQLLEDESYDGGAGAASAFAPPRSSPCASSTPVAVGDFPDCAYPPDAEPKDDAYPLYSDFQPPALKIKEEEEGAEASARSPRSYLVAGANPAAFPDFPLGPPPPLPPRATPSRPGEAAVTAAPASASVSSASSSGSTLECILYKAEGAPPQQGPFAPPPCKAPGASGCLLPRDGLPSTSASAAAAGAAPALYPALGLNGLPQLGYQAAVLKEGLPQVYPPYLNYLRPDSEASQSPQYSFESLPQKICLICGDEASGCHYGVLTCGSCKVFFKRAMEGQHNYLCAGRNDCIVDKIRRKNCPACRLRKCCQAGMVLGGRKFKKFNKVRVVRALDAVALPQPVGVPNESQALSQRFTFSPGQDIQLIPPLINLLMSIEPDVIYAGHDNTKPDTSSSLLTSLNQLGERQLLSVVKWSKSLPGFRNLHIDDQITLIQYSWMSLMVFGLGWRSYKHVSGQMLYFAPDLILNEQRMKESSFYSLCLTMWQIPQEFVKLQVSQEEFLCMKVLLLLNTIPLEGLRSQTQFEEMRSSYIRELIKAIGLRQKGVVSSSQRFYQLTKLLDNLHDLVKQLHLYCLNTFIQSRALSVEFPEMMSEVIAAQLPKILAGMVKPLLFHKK

Mus musculus [10] = test: Anti-NASH activity in western diet and CCl4-induced nonalcoholic steatohepatitis C57BL/6 mouse assessed as reduction in IL-1beta level at 20 mg/kg, po administered for 12 weeks starting from week 8 and change in dose for every 5 days by ELISA; assay type: functional, organism-based; conditions: time 4.0 weeks
[11] = Drug concentration in C57BL/6 mouse ileum at 20 mg/kg, po administered for 5 days and measured after 1 hr post final dose by LC-MS analysis; assay type: ADME, organism-based; conditions: time 5 day, read-out: Ct
[12] = Ratio of drug level in liver to plasma in C57BL/6 mouse at 20 mg/kg, po administered for 5 days and measured after 1 hr post final dose by LC-MS analysis
[13] = Drug concentration in C57BL/6 mouse liver at 20 mg/kg, po administered for 5 days and measured after 1 hr post final dose by LC-MS analysis; assay type: ADME, organism-based; conditions: time 5 day, read-out: Ct
Mus musculus [14] = test: Antioxidant activity in western diet and CCl4-induced nonalcoholic steatohepatitis C57BL/6 mouse model assessed as increase in glutathione peroxidase level at 20 mg/kg, po administered for 12 weeks starting from week 8 and change in dose for every 5 days; assay type: functional, organism-based; conditions: time 4.0 weeks
[15] = Subacute toxicity in ICR mouse assessed as reduction in serum ALP level at 500 mg/kg/day, po administered for 14 days; assay type: organism-based; conditions: in vivo, 336 h, time 14 day
Mus musculus [16] = test: Anti-NASH activity in western diet and CCl4-induced nonalcoholic steatohepatitis C57BL/6 mouse assessed as downregulation of IL-1beta expression level at 20 mg/kg, po administered for 12 weeks starting from week 8 and change in dose for every 5 days by ELISA; assay type: functional, organism-based; conditions: time 4.0 weeks
[17] = Subacute toxicity in ICR mouse assessed as changes in animal growth at 500 mg/kg/day, po administered for 14 days; assay type: organism-based; conditions: in vivo, 336 h, time 14 day
[18] = Subacute toxicity in ICR mouse assessed as changes in serum AST level at 500 mg/kg/day, po administered for 14 days; assay type: organism-based; conditions: in vivo, 336 h, time 14 day
Mus musculus [19] = test: Anti-NASH activity in western diet and CCl4-induced nonalcoholic steatohepatitis C57BL/6 mouse assessed as alleviation of lobular inflammation at 20 mg/kg, po administered for 12 weeks starting from week 8 and change in dose for every 5 days; assay type: functional, organism-based; conditions: time 4.0 weeks
[20] = biological target: T1, Bile acid receptor (Mus musculus); test: Activation of FXR in C57BL/6 mouse ileum assessed as upregulation of OST-beta gene expression at 20 mg/kg, po administered for 5 days and measured after 1 hr post final dose by RT-PCR analysis; assay type: organism-based; conditions: filed as activator, time 5.0 day

O=C(O)C1(c2cccc(-c3ccc(OCc4c(-c5c(Cl)cccc5Cl)noc4C4CC4)cc3)c2)CC1
Activity (Mus musculus [1]): Active
EC50 (Vitamin D3 receptor): > 10 µM
Activity [2]: Non-Toxic
Activity (Mus musculus [3]): Active
remaining at 1 h [4]: 71%
Activity (Mus musculus [5]): Active
Activity [6]: Active
Activity [7]: Non-Toxic
IC50 [8]: > 10 µM
Activity (Mus musculus [9]): Active
EC50 (Progesterone receptor): > 10 µM
Activity (Mus musculus [10]): Active
concentration at 120 h [11]: 996 ng/g
Kp at 120 h [12]: 5.1
concentration at 120 h [13]: 37.2 ng/g
Activity (Mus musculus [14]): Active
Activity [15]: Non-Toxic
Activity (Mus musculus [16]): Active
Activity [17]: Non-Toxic
Activity [18]: Non-Toxic
Activity (Mus musculus [19]): Active
Activity [20]: Active
